Data: patent US6451854B1, “α-amino acid phenyl ester derivatives” (Akzo Nobel N.V., priority 1998, dated 2002)
Structures can show the parent of a compound that is named as a salt.

Key:
mice = test: hypnotic activity: loss of righting reflex after intravenous administration in mice; format: in vivo; settings: Mus musculus, iv, dose causing loss of righting reflex for minimum 30 seconds in 50% of mice, intravenous injection over 10 seconds; read-out: HD50 (the source's name)
Experimental: The hypnotic potency of the α-amino acid phenyl ester derivatives of the invention was determined upon their intravenous administration in mice. The dose required to cause a loss of righting reflex for a minimum period of 30 seconds in 50% of treated mice after intravenous injection over 10 seconds was determined. This dose is termed the HD50 (hypnotic dose50) and is expressed in μmol.kg^−1.

GABAA receptors = test: inhibition of [35S]-TBPS binding to rat whole brain membranes; settings: concentration required to inhibit 50% of [35S]-TBPS binding
From the text: γ-Aminobutyric acid (GABA) is the major inhibitory neurotransmitter within the central nervous system and it is probable that compounds potentiating the effects of GABA at GABAA receptors will induce anaesthesia (S. A. Zimmerman, M. V. Jones and N. L. Harrison, J. Pharmacol. Exp. Therap. 1994, 270, 987-991; N. P. Franks and W. R. Lieb, Nature 1994, 367, 607-614). Indeed there is compelling evidence that many hypnotics exert their biological activity via modulation of GABAA receptors, including steroids, barbiturates, benzodiazepines and propofol (D. L. Tanelian, P. Kosek, I. Mody and M. B. Maclver, Anesthesiology 1993, 78, 757-776).
The in vitro effect of the compounds of the invention at GABAA receptors was assessed through determination of their ability to inhibit [^35S]-TBPS ([^35S]-tert-butyl bicyclophosphorothionate) binding to rat whole brain membranes. The concentration of α-amino acid phenyl ester derivative required to inhibit 50% of binding of [^35S]-TBPS was determined. These in vitro experiments were carried out as described in detail by Anderson et al., J.Med.Chem. 1997, 40, 1668-1681.

SMILES	melting point	ED50 (mice)	IC50 (GABAA receptors)
COCCN(CCOC)C(C)C(=O)Oc1c(OC)cc(C)cc1OC (racemic) (as salt: hydrochloride) [Example 7e, (±)-2-[N-bis(2-methoxyethyl)amino]propionic acid, 2,6-dimethoxy-4-methylphenyl ester hydrochloride (1:1) salt]	96 to 97 °C	–	–
COCCN(CCOC)C(C)C(=O)Oc1c(OC)cccc1OC (racemic) (as salt: hydrochloride) [Example 7f, (±)-2-[N-bis(2-methoxyethyl)amino]propionic acid, 2,6-dimethoxyphenyl ester hydrochloride (1:1) salt]	114 to 116 °C	–	–
CC[C@@H](C(=O)Oc1c(OC)cc(C)cc1OC)N(CCOC)CCOC [Example 7v, S-(−)-2-[N-bis(2-methoxyethyl)amino]butyric acid, 2,6-dimethoxy-4-methylphenyl ester hydrochloride (1:1) salt]	–	35 µmol/kg	14 µM
COCCN(CCOC)[C@H](C)C(=O)Oc1c(OC)cc(C)cc1OC [Example 7y, R-(+)-2-[N-bis(2-methoxyethyl)amino]propionic acid, 2,6-dimethoxy-4-methylphenyl ester hydrochloride (1:1) salt]	–	18 µmol/kg	< 100 µM
CCOCCN(CCOCC)[C@H](CC)C(=O)Oc1c(OC)cccc1OC [Example 7z, R-(+)-2-[N-bis(2-ethoxyethyl)amino]butyric acid, 2,6-dimethoxyphenyl ester hydrochloride (1:1) salt]	–	19 µmol/kg	18 µM
COc1cccc(OC)c1OC(=O)C(C)N1CCOCC1 (stereo not shown) [Reference, 2,6-dimethoxyphenyl 2-morpholinopropionate, reference compound]	–	139 µmol/kg	766 µM
